From patent publication US8835440B2, “Cyclic pyrimidin-4-carboxamides as CCR2 receptor antagonists for treatment of inflammation, asthma and COPD” (Boehringer Ingelheim International GmbH, priority 2008, dated 2014)

Biological target: T1, CCR2 (Homo sapiens, UniProt P41597)
T1 construct: Membranes were prepared from THP-1 cells; endogenous in cells; host or cells: THP-1 cells (membrane preparation)
T1 sequence (P41597 1-360 isoform P41597-2): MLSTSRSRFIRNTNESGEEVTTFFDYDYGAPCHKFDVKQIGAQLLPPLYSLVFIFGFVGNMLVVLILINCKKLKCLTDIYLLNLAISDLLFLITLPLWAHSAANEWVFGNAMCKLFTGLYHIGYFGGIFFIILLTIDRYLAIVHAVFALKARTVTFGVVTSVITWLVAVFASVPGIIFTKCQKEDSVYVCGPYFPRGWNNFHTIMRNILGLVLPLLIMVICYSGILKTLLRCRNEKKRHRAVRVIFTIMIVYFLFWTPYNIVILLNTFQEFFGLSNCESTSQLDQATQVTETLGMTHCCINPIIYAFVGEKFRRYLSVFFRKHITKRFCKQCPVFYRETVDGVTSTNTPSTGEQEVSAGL
Test: CCR2 receptor membrane binding assay ([125I]MCP-1, THP-1 cell membranes, SPA beads)
Details: for remaining activity at 10 µM: @ 10 μM test compound, THP-1 membranes, read-out: CCR2 % ctrl @ 10 μM; for Ki: dissociation constant hKi, [125I]MCP-1 binding to THP-1 membranes
Protocol: The above exemplary substances have been tested for binding to CCR2 using a binding assay as outlined herein below:
THP-1 cells (human acute monocytic leukaemia cells) were cultured under standardized conditions at 37° C. and 5% CO2 in a humidified incubator. THP-1 cells were cultivated in RPMI 1640 medium (Gibco 21875) containing 1% MEM-NEAA (Gibso 11140) 2 mM L-glutamine, 1.5 g/L sodium bicarbonate, 4.5 g/L glucose, 10 mM HEPES and 1.0 mM sodium pyruvate, 90%; 10% fetal calf serum (FCS Gibco 10500-064).
Membranes were prepared from THP-1 cells. THP-1 cells were centrifuged at 300×g at 4° C. for 10 min. The cell pellet was resuspendet in Phosphate Buffer Saline (PBS, including 10 μM Pefabloc and a protease inhibitor mix ‘complete’, Boehringer Mannheim (1 tablet/50 ml)), to a concentration of […]. The membrane preparation was performed by disrupting the cells by nitrogen […] (at 50 bar, for 1 h) in a “Nitrogen Bombe” (Parr Instrument). Cell debris was removed by centrifugation (800×g at 4° C., 1 min). The supernatant was centrifuged at 80000×g, 4° C. for 30 min to sediment the cell membranes. Usually 50 mg of protein (Bradford assay) were yielded from 1×10E9 cells. The membranes were resuspendet in 25 mM HEPES, 25 mM MgCl2, 1 mM CaCl2, 10% Glycerine for storage in aliquots at −80° C. in 25 mM HEPES, 25 mM MgCl2, 1 mM CaCl2, 10% Glycerine and stored at −80° C.
Receptor Membrane Binding Assay:
Perkin Elmer NEX 332 Jod 125 MCP-1, Stock: 2200 Ci/mmol solved in 2000 μl assay buffer, stored at −20° C. THP-1 membrane were adjusted with 25 mM HEPES, pH 7.2; 5 mM MgCl2; 0.5 mM CaCl2; 0.2% BSA assay buffer to a concentration of […]. Amersham Biosciences PVT-WGA Beads (RPNQ0001) were adjusted with assay buffer to a concentration of 0.24 mg/30 μl. For preparation of the membrane-bead-suspension membranes and beads were incubated for 30 min at RT under rotation (60 rpm) with a ratio of 1:2. Test compounds dissolved in 100% DMSO to a concentration of 10 mM and are further diluted with 100% DMSO to 1 mM. All additional compound dilutions were obtained with assay buffer, final 1% DMSO. Compounds, membrane-bead-suspension and [125I]MCP-1 (ca. 25000 cpm/10 μl) were incubated. Bound radioactivity was determined by scintillation counter after 8 h. Determination of affinity of test compounds (dissociation constant hKi) is calculated by iterative fitting of experimental data using the “easy sys” program, which is based on law of mass action (Schittkowski K. (1994), Numerische Mathematik, Vol. 68, 129-142).

Compound	remaining activity at 10 µM [%]	Ki [nM]
Cc1c(NCc2ccc(F)c(F)c2)ncnc1C(=O)N1CCC(N2CCOCC2)CC1 [Example 48]	26	1780
Cc1c(NCC2COc3ccccc3C2)ncnc1C(=O)N1CCC(N2CCOCC2)CC1 (stereo not drawn) [Example 50]	22	928
Cc1c(NCC2CCN(c3ccccc3)C2)ncnc1C(=O)N1CCC(N2CCOCC2)CC1 (stereo not drawn) [Example 51]	13	290
Cc1c(NCCc2ccc(Cl)c(Cl)c2)ncnc1C(=O)N1CCC(N2CCC(N(C)S(C)(=O)=O)CC2)CC1 [Example 53]	4	18
CCc1ccc(CNc2ncnc(C(=O)N3CCC(N4CCC(N(C)S(C)(=O)=O)CC4)CC3)c2C)cc1 [Example 56]	8	127
Cc1c(NCC2COc3ccccc3C2)ncnc1C(=O)N1CCC(N2CCC(N(C)S(C)(=O)=O)CC2)CC1 (stereo not drawn) [Example 57]	10	93
Cc1ccc(CNc2ncnc(C(=O)N3CCC(N4CCC(N(C)S(C)(=O)=O)CC4)CC3)c2C)cc1Cl [Example 59]	5	55
Cc1c(NCC2CCN(c3ccccc3)C2)ncnc1C(=O)N1CCC(N2CCC(N(C)S(C)(=O)=O)CC2)CC1 (stereo not drawn) [Example 60]	5	44
Cc1c(NCC2Cc3ccccc3C2)ncnc1C(=O)N1CCC(N2CCC(N(C)S(C)(=O)=O)CC2)CC1 [Example 61]	2	46
Cc1c(NCc2ccc(C(F)(F)F)c(Cl)c2)ncnc1C(=O)N1CCC(N2CCC(N(C)S(C)(=O)=O)CC2)CC1 [Example 62]	3	38
Cc1c(NCc2ccc(Cl)c(F)c2)ncnc1C(=O)N1CCC(N2CCC(N(C)S(C)(=O)=O)CC2)CC1 [Example 63]	7	54
Cc1ccc(CNc2ncnc(C(=O)N3CCC(N4CCC(N(C)S(C)(=O)=O)CC4)CC3)c2C)cc1F [Example 65]	8	176
Cc1c(NCc2cccc(Cl)c2)ncnc1C(=O)N1CCC(N2CCC(N(C)S(C)(=O)=O)CC2)CC1 [Example 66]	8	138
COc1ccc(CNc2ncnc(C(=O)N3CCC(N4CCC(N(C)S(C)(=O)=O)CC4)CC3)c2C)cc1 [Example 67]	27	1420
Cc1c(NCc2ccc(F)c(Cl)c2)ncnc1C(=O)N1CCC(N2CCC(N(C)S(C)(=O)=O)CC2)CC1 [Example 68]	7	98
Cc1c(NCc2ccc(C(C)(C)C)cc2)ncnc1C(=O)N1CCC(N2CCC(NS(C)(=O)=O)CC2)CC1 [Example 69]	7	63
Cc1c(NCC2COc3ccccc3C2)ncnc1C(=O)N1CCC(N2CCC(NS(C)(=O)=O)CC2)CC1 (stereo not drawn) [Example 71]	12	117
Cc1c(NCc2ccc(Cl)c(Cl)c2)ncnc1C(=O)N1CCC(N2CCC(NS(C)(=O)=O)CC2)CC1 [Example 72]	7	81
Cc1c(NCC2Cc3ccccc3C2)ncnc1C(=O)N1CCC(N2CCC(NS(C)(=O)=O)CC2)CC1 [Example 73]	2	38
CNC(=O)[C@@H]1CCN(C2CCN(C(=O)c3ncnc(NCc4ccc(C(F)(F)F)c(Cl)c4)c3C)CC2)C1 [Example 77]	27	650
CNC(=O)[C@@H]1CCN(C2CCN(C(=O)c3ncnc(NCc4ccc(Cl)c(F)c4)c3C)CC2)C1 [Example 78]	28	740
Cc1nc(NCc2ccc(Cl)c(F)c2)c(C)c(C(=O)N2CCC(N3CCC(N(C)S(C)(=O)=O)CC3)CC2)n1 [Example 80]	7	53
Cc1nc(NCc2ccc(C(F)(F)F)c(Cl)c2)c(C)c(C(=O)N2CCC(N3CCC(N(C)S(C)(=O)=O)CC3)CC2)n1 [Example 81]	8	52
Cc1nc(NCc2ccc(Cl)c(Cl)c2)c(C)c(C(=O)N2CCC(N3CCC(N(C)S(C)(=O)=O)CC3)CC2)n1 [Example 82]	4	43
Cc1nc(NCC2Cc3ccccc3C2)c(C)c(C(=O)N2CCC(N3CCC(N(C)S(C)(=O)=O)CC3)CC2)n1 [Example 86]	3	39
Cc1nc(NCC2CCCN(c3ccccc3)C2)c(C)c(C(=O)N2CCC(N3CCC(N(C)S(C)(=O)=O)CC3)CC2)n1 (stereo not drawn) [Example 87]	9	78

Next, values leading:

remaining activity at 10 µM [%]	Ki [nM]	Compound
14	222	Cc1c(NCc2ccc(C(F)(F)F)c(Cl)c2)ncnc1C(=O)N1CCC(N2CCOCC2)CC1 [Example 47]
7	97	Cc1c(NCc2ccc(Cl)cc2)ncnc1C(=O)N1CCC(N2CCC(N(C)S(C)(=O)=O)CC2)CC1 [Example 49]
12	175	Cc1c(NCc2ccc(C(C)(C)C)cc2)ncnc1C(=O)N1CCC(N2CCOCC2)CC1 [Example 52]
13	356	Cc1c(NCc2ccc(C(C)(C)C)nc2)ncnc1C(=O)N1CCC(N2CCC(N(C)S(C)(=O)=O)CC2)CC1 [Example 54]
17	200	Cc1cc(CNc2ncnc(C(=O)N3CCC(N4CCC(N(C)S(C)(=O)=O)CC4)CC3)c2C)ccc1F [Example 55]
12	336	Cc1c(NCC2CCN(c3ccccc3)CC2)ncnc1C(=O)N1CCC(N2CCC(N(C)S(C)(=O)=O)CC2)CC1 [Example 58]
8	65	Cc1c(NCc2ccc(C(C)C)cc2)ncnc1C(=O)N1CCC(N2CCC(N(C)S(C)(=O)=O)CC2)CC1 [Example 64]
6	80	Cc1c(NCCc2ccc(OC(F)(F)F)cc2)ncnc1C(=O)N1CCC(N2CCC(NS(C)(=O)=O)CC2)CC1 [Example 70]
2	71	Cc1c(NCC2CCN(c3ccccc3)C2)ncnc1C(=O)N1CCC(N2CCC(NS(C)(=O)=O)CC2)CC1 (stereo not drawn) [Example 74]
7	67	Cc1c(NCc2ccc(C(F)(F)F)c(Cl)c2)ncnc1C(=O)N1CCC(N2CCC(NS(C)(=O)=O)CC2)CC1 [Example 75]
12	132	Cc1c(NCc2ccc(Cl)c(F)c2)ncnc1C(=O)N1CCC(N2CCC(NS(C)(=O)=O)CC2)CC1 [Example 76]
10	89	Cc1nc(NCC2COc3ccccc3C2)c(C)c(C(=O)N2CCC(N3CCC(N(C)S(C)(=O)=O)CC3)CC2)n1 (stereo not drawn) [Example 79]
3	43	Cc1nc(NCc2ccc(C(C)(C)C)cc2)c(C)c(C(=O)N2CCC(N3CCC(N(C)S(C)(=O)=O)CC3)CC2)n1 [Example 83]
4	69	Cc1nc(NCC2CCN(c3ccccc3)C2)c(C)c(C(=O)N2CCC(N3CCC(N(C)S(C)(=O)=O)CC3)CC2)n1 (stereo not drawn) [Example 84]
13	55	Cc1nc(NC[C@@H]2CCN(c3ccccc3)C2)c(C)c(C(=O)N2CCC(N3CCC(N(C)S(C)(=O)=O)CC3)CC2)n1 [Example 85]
6	58	Cc1nc(NCc2ccc(Cl)c(Cl)c2)c(C)c(C(=O)N2CCC(N3CCC(NS(C)(=O)=O)CC3)CC2)n1 [Example 88]
